{"source": "ChEMBL document CHEMBL4346705", "about": "“(±)-trans-Dihydronarciclasine and (±)-trans-dihydrolycoricidine analogues modified in their ring A: Evaluation of their anticancer activity and a SAR study” (2019)", "format_in_all_cases": "functional", "key": {"SF-295": {"test_system": "SF-295", "assay": "Cytotoxicity against human SF295 cells assessed as growth inhibition after 48 hrs by sulforhodamine B assay", "conditions": "SF-295, 48 h"}, "SK-MEL-28": {"test_system": "SK-MEL-28", "assay": "Cytotoxicity against human SK-MEL-28 cells assessed as growth inhibition after 48 hrs by sulforhodamine B assay", "conditions": "SK-MEL-28, 48 h"}, "MOLT-4": {"test_system": "MOLT-4", "assay": "Cytotoxicity against human MOLT4 cells assessed as growth inhibition after 48 hrs by sulforhodamine B assay", "conditions": "MOLT-4, 48 h"}, "NCI-H522": {"test_system": "NCI-H522", "assay": "Cytotoxicity against human NCI-H522 cells assessed as growth inhibition after 48 hrs by sulforhodamine B assay", "conditions": "NCI-H522, 48 h"}, "EKVX": {"test_system": "EKVX", "assay": "Cytotoxicity against human EKVX cells assessed as growth inhibition after 48 hrs by sulforhodamine B assay"}, "HL-60(TB)": {"test_system": "HL-60(TB)", "assay": "Cytotoxicity against human HL-60(TB) cells assessed as growth inhibition after 48 hrs by sulforhodamine B assay", "conditions": "HL-60, 48 h"}, "MCF7": {"test_system": "MCF7", "assay": "Cytotoxicity against human MCF7 cells assessed as growth inhibition after 48 hrs by sulforhodamine B assay", "conditions": "MCF7, 48 h"}, "TK-10": {"test_system": "TK-10", "assay": "Cytotoxicity against human TK10 cells assessed as growth inhibition after 48 hrs by sulforhodamine B assay", "conditions": "TK-10, 48 h"}, "SK-MEL-2": {"test_system": "SK-MEL-2", "assay": "Cytotoxicity against human SK-MEL-2 cells assessed as growth inhibition after 48 hrs by sulforhodamine B assay", "conditions": "SK-MEL-2, 48 h"}, "OVCAR-4": {"test_system": "OVCAR-4", "assay": "Cytotoxicity against human OVCAR4 cells assessed as growth inhibition after 48 hrs by sulforhodamine B assay", "conditions": "OVCAR-4, 48 h"}, "SF-539": {"test_system": "SF-539", "assay": "Cytotoxicity against human SF539 cells assessed as growth inhibition after 48 hrs by sulforhodamine B assay", "conditions": "SF-539, 48 h"}, "A498": {"test_system": "A498", "assay": "Cytotoxicity against human A498 cells assessed as growth inhibition after 48 hrs by sulforhodamine B assay", "conditions": "A498, 48 h"}, "NCI-H322M": {"test_system": "NCI-H322M", "assay": "Cytotoxicity against human NCI-H322M cells assessed as growth inhibition after 48 hrs by sulforhodamine B assay"}, "UO-31": {"test_system": "UO-31", "assay": "Cytotoxicity against human UO31 cells assessed as growth inhibition after 48 hrs by sulforhodamine B assay", "conditions": "UO-31, 48 h"}, "SNB-19": {"test_system": "SNB-19", "assay": "Cytotoxicity against human SNB19 cells assessed as growth inhibition after 48 hrs by sulforhodamine B assay", "conditions": "SNB-19, 48 h"}, "HT-29": {"test_system": "HT-29", "assay": "Cytotoxicity against human HT-29 cells assessed as growth inhibition after 48 hrs by sulforhodamine B assay", "conditions": "HT-29, 48 h"}, "Hs-578T": {"test_system": "Hs-578T", "assay": "Cytotoxicity against human Hs 578T cells assessed as growth inhibition after 48 hrs by sulforhodamine B assay"}, "SK-OV-3": {"test_system": "SK-OV-3", "assay": "Cytotoxicity against human SKOV3 cells assessed as growth inhibition after 48 hrs by sulforhodamine B assay", "conditions": "SK-OV-3, 48 h"}, "NCI-H460": {"test_system": "NCI-H460", "assay": "Cytotoxicity against human NCI-H460 cells assessed as growth inhibition after 48 hrs by sulforhodamine B assay", "conditions": "NCI-H460, 48 h"}, "LOX IMVI": {"test_system": "LOX IMVI", "assay": "Cytotoxicity against human LOXIMVI cells assessed as growth inhibition after 48 hrs by sulforhodamine B assay"}, "786-0": {"test_system": "786-0", "assay": "Cytotoxicity against human 786-0 cells assessed as growth inhibition after 48 hrs by sulforhodamine B assay", "conditions": "786-0, 48 h"}, "SF-268": {"test_system": "SF-268", "assay": "Cytotoxicity against human SF268 cells assessed as growth inhibition after 48 hrs by sulforhodamine B assay", "conditions": "SF-268, 48 h"}, "SN12C": {"test_system": "SN12C", "assay": "Cytotoxicity against human SN12C cells assessed as growth inhibition after 48 hrs by sulforhodamine B assay"}, "ACHN": {"test_system": "ACHN", "assay": "Cytotoxicity against human ACHN cells assessed as growth inhibition after 48 hrs by sulforhodamine B assay"}, "[1]": {"conditions": "read-out: LC50 (the source's name)"}}, "data": [{"smiles": "O=C1NC2C(CC(O)C(O)C2O)c2cc3c(c(O)c21)OCCO3", "note": "(racemic)", "values": [{"measurement": "GI50", "setting": "SF-295", "result": 357, "unit": "nM"}, {"measurement": "TGI", "setting": "SF-295", "result": 2640, "unit": "nM"}, {"measurement": "CC50", "setting": "SF-295; [1]", "result": "> 100000", "unit": "nM"}, {"measurement": "GI50", "setting": "SK-MEL-28", "result": 238, "unit": "nM"}, {"measurement": "LC50 (concentration killing 50% of cells)", "setting": "SK-MEL-28", "result": 29400, "unit": "nM"}, {"measurement": "TGI", "setting": "SK-MEL-28", "result": 890, "unit": "nM"}, {"measurement": "GI50", "setting": "MOLT-4", "result": 179, "unit": "nM"}, {"measurement": "TGI", "setting": "MOLT-4", "result": 10100, "unit": "nM"}, {"measurement": "CC50", "setting": "MOLT-4; [1]", "result": "> 100000", "unit": "nM"}, {"measurement": "GI50", "setting": "NCI-H522", "result": 147, "unit": "nM"}, {"measurement": "LC50", "setting": "NCI-H522", "result": 7620, "unit": "nM"}, {"measurement": "TGI", "setting": "NCI-H522", "result": 730, "unit": "nM"}, {"measurement": "GI50", "setting": "EKVX", "result": 257, "unit": "nM"}, {"measurement": "TGI", "setting": "EKVX", "result": 1270, "unit": "nM"}, {"measurement": "CC50", "setting": "EKVX; [1]", "result": "> 100000", "unit": "nM"}, {"measurement": "GI50", "setting": "HL-60(TB)", "result": 166, "unit": "nM"}, {"measurement": "LC50", "setting": "HL-60(TB)", "result": "> 100000", "unit": "nM"}, {"measurement": "TGI", "setting": "HL-60(TB)", "result": 590, "unit": "nM"}, {"measurement": "GI50", "setting": "MCF7", "result": 103, "unit": "nM"}, {"measurement": "LC50", "setting": "MCF7", "result": "> 100000", "unit": "nM"}, {"measurement": "TGI", "setting": "MCF7", "result": 590, "unit": "nM"}, {"measurement": "GI50", "setting": "TK-10", "result": 563, "unit": "nM"}, {"measurement": "LC50", "setting": "TK-10", "result": "> 100000", "unit": "nM"}, {"measurement": "TGI", "setting": "TK-10", "result": 3870, "unit": "nM"}, {"measurement": "GI50", "setting": "SK-MEL-2", "result": 245, "unit": "nM"}, {"measurement": "TGI", "setting": "SK-MEL-2", "result": 930, "unit": "nM"}, {"measurement": "GI50", "setting": "OVCAR-4", "result": 209, "unit": "nM"}, {"measurement": "LC50 (concentration causing 50% net cell kill)", "setting": "OVCAR-4", "result": "> 100000", "unit": "nM"}, {"measurement": "TGI", "setting": "OVCAR-4", "result": 820, "unit": "nM"}, {"measurement": "GI50", "setting": "SF-539", "result": 228, "unit": "nM"}, {"measurement": "LC50", "setting": "SF-539", "result": 12700, "unit": "nM"}, {"measurement": "TGI", "setting": "SF-539", "result": 740, "unit": "nM"}, {"measurement": "GI50", "setting": "A498", "result": 300, "unit": "nM"}, {"measurement": "LC50 (concentration killing 50% of cells)", "setting": "A498", "result": 6860, "unit": "nM"}, {"measurement": "TGI", "setting": "A498", "result": 1170, "unit": "nM"}, {"measurement": "GI50", "setting": "NCI-H322M", "result": 105, "unit": "nM"}, {"measurement": "TGI", "setting": "NCI-H322M", "result": 620, "unit": "nM"}, {"measurement": "CC50", "setting": "NCI-H322M; [1]", "result": "> 100000", "unit": "nM"}, {"measurement": "GI50", "setting": "UO-31", "result": 316, "unit": "nM"}, {"measurement": "LC50", "setting": "UO-31", "result": "> 100000", "unit": "nM"}, {"measurement": "TGI", "setting": "UO-31", "result": 2460, "unit": "nM"}, {"measurement": "GI50", "setting": "SNB-19", "result": 155, "unit": "nM"}, {"measurement": "LC50", "setting": "SNB-19", "result": "> 100000", "unit": "nM"}, {"measurement": "TGI", "setting": "SNB-19", "result": 1030, "unit": "nM"}, {"measurement": "GI50", "setting": "HT-29", "result": 299, "unit": "nM"}, {"measurement": "LC50 (concentration causing 50% net cell kill)", "setting": "HT-29", "result": 96400, "unit": "nM"}, {"measurement": "TGI", "setting": "HT-29", "result": 1330, "unit": "nM"}, {"measurement": "GI50", "setting": "Hs-578T", "result": 256, "unit": "nM"}, {"measurement": "LC50 (concentration killing 50% of cells)", "setting": "Hs-578T", "result": "> 100000", "unit": "nM"}, {"measurement": "TGI", "setting": "Hs-578T", "result": 940, "unit": "nM"}, {"measurement": "GI50", "setting": "SK-OV-3", "result": 496, "unit": "nM"}, {"measurement": "TGI", "setting": "SK-OV-3", "result": 4030, "unit": "nM"}, {"measurement": "CC50", "setting": "SK-OV-3; [1]", "result": "> 100000", "unit": "nM"}, {"measurement": "GI50", "setting": "NCI-H460", "result": 154, "unit": "nM"}, {"measurement": "LC50", "setting": "NCI-H460", "result": "> 100000", "unit": "nM"}, {"measurement": "TGI", "setting": "NCI-H460", "result": 1050, "unit": "nM"}, {"measurement": "GI50", "setting": "LOX IMVI", "result": 180, "unit": "nM"}, {"measurement": "LC50 (concentration killing 50% of cells)", "setting": "LOX IMVI", "result": 3580, "unit": "nM"}, {"measurement": "TGI", "setting": "LOX IMVI", "result": 530, "unit": "nM"}, {"measurement": "GI50", "setting": "786-0", "result": 254, "unit": "nM"}, {"measurement": "LC50 (concentration killing 50% of cells)", "setting": "786-0", "result": "> 100000", "unit": "nM"}, {"measurement": "TGI", "setting": "786-0", "result": 1610, "unit": "nM"}, {"measurement": "GI50", "setting": "SF-268", "result": 260, "unit": "nM"}, {"measurement": "LC50", "setting": "SF-268", "result": "> 100000", "unit": "nM"}, {"measurement": "TGI", "setting": "SF-268", "result": 1220, "unit": "nM"}, {"measurement": "GI50", "setting": "SN12C", "result": 141, "unit": "nM"}, {"measurement": "TGI", "setting": "SN12C", "result": 890, "unit": "nM"}, {"measurement": "CC50", "setting": "SN12C; [1]", "result": "> 100000", "unit": "nM"}, {"measurement": "GI50", "setting": "ACHN", "result": 297, "unit": "nM"}, {"measurement": "LC50 (concentration killing 50% of cells)", "setting": "ACHN", "result": 7730, "unit": "nM"}, {"measurement": "TGI", "setting": "ACHN", "result": 1480, "unit": "nM"}]}]}
